Laboratory results published in patent US10251394B2, “Molecules having pesticidal utility, and intermediates, compositions, and processes, related thereto” (Dow AgroSciences LLC, priority 2016, dated 2019).

Assays:
Format in all cases: in vivo
[1] = tested on: Beet Armyworm (Spodoptera exigua); assay: Bioassay on Beet Armyworm (BAW), 128-well diet tray assay; conditions: Beet Armyworm, Table ABC, read-out: BAW rating
Method in brief: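 Percent mortality, averaged over eight wells, was scored after five to seven days at 25° C under 14:10 light-dark. Each well's diet carried 50 μg/cm^2 of test molecule applied in acetone-water (90:10) and dried before one to five second-instar larvae were added.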

[2] = tested on: Cabbage Looper (Trichoplusia ni); assay: Bioassay on Cabbage Looper (CL), 128-well diet tray assay; conditions: Cabbage Looper, Table ABC, read-out: CL rating
Method in brief: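 Mortality after five to seven days at 25° C (14:10 photoperiod), averaged over eight wells per compound. Diet in each well carried 50 μg/cm^2 of dried test molecule and received one to five second-instar larvae.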

[3] = tested on: Green Peach Aphid (Myzus persicae); assay: Bioassay on Green Peach Aphid (GPA), foliar spray on cabbage seedlings; conditions: 72 h, Table ABC, read-out: GPA rating
Protocol: Example B: Bioassays on Green Peach Aphid (Myzus Persicae, MYZUPE) (“GPA”) Certain molecules disclosed in this document were tested against GPA using procedures described in the following example. In the reporting of the results, the “GPA & YFM Rating Table” was used (See Table Section). Cabbage seedlings grown in 3-inch pots, with 2-3 small (3-5 cm) true leaves, were used as test substrate. The seedlings were infested with 20-50 GPA (wingless adult and nymph stages) one day prior to chemical application. Four pots with individual seedlings were used for each treatment. Test molecules (2 mg) were dissolved in 2 mL of acetone/methanol (1:1) solvent, forming stock solutions of 1000 ppm test molecule. The stock solutions were diluted 5× with 0.025% Tween 20 in water to obtain the solution at 200 ppm test molecule. A hand-held aspirator-type sprayer was used for spraying a solution to both sides of […] leaves until runoff. Reference plants (solvent check) were sprayed with the diluent only containing 20% by volume of acetone/methanol (1:1) solvent. Treated plants were held in a holding room for three days at approximately 25° C. and ambient relative humidity (RH) prior to grading. Evaluation was conducted by counting the number of live aphids per plant under a microscope. Percent Control was measured by using Abbott's correction formula (W. S. Abbott, “A Method of Computing the Effectiveness of an Insecticide” J. Econ. Entomol. 18 (1925), pp. 265-267) as follows. Corrected % Control=100*(X−Y)/X • where • X=No. of live aphids on solvent check plants and • Y=No. of live aphids on treated plants The results are indicated in the table entitled “Table ABC: Biological Results” (See Table Section).

[4] = tested on: Yellow Fever Mosquito (Aedes aegypti); assay: Bioassay on Yellow Fever Mosquito (YFM) larvae, 96-well plate; conditions: Table ABC
Method in brief: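 About 1-day-old larvae in water with liver powder were added to wells holding compound from a 4000 ppm DMSO master diluted in 90:10 water:acetone. Plates covered and kept at room temperature for 3 days, then each well scored for mortality on a rating scale.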

Structure (SMILES): O=C(NC1(C(=O)NCC(F)(F)F)CC1)c1ccc(/C(F)=C/C(c2cc(Cl)c(Cl)c(Cl)c2)C(F)(F)F)cc1C(F)(F)F (stereo not drawn) [F3, (Z)-4-(1,4,4,4-Tetrafluoro-3-(3,4,5-trichlorophenyl)but-1-en-1-yl)-N-(1-((2,2,2-trifluoroethyl)carbamoyl)cyclopropyl)-2-(trifluoromethyl)benzamide]
- pest or weed control at 50 µg/cm2 [1]: 50 to 100%
- pest or weed control at 50 µg/cm2 [2]: 50 to 100%
- pest or weed control at 200 µg/mL [3]: 80 to 100%

Structure (SMILES): C=CCc1c(Cl)cc(C(/C=C(\F)c2ccc(C(=O)N[C@H](C)C(=O)NCC(F)(F)F)c(C(F)(F)F)c2)C(F)(F)F)cc1Cl (stereo partly drawn) [F146, 4-((Z)-3-(4-Allyl-3,5-dichlorophenyl)-1,4,4,4-tetrafluorobut-1-en-1-yl)-N—((R)-1-oxo-1-((2,2,2-trifluoroethyl)amino)propan-2-yl)-2-(trifluoromethyl)benzamide]
- pest or weed control at 50 µg/cm2 [1]: 50 to 100%
- pest or weed control at 50 µg/cm2 [2]: 50 to 100%
- pest or weed control at 200 µg/mL [3]: 0 to 80%
- YFM rating [4]: B (More than 0-Less than 80)

Structure (SMILES): O=C(N[C@@H]1CON(CC(F)(F)F)C1=O)c1ccc(/C(F)=C/C(c2cc(F)c(F)c(F)c2)C(F)(F)F)cc1C(F)(F)F (stereo partly drawn) [F155, N—((R)-3-Oxo-2-(2,2,2-trifluoroethyl)isoxazolidin-4-yl)-4-((Z)-1,4,4,4-tetrafluoro-3-(3,4,5-trifluorophenyl)but-1-en-1-yl)-2-(trifluoromethyl)benzamide]
- pest or weed control at 50 µg/cm2 [1]: 50 to 100%
- pest or weed control at 50 µg/cm2 [2]: 50 to 100%
- pest or weed control at 200 µg/mL [3]: 80 to 100%
- YFM rating [4]: A (80-100)

Structure (SMILES): O=C(CNC(=O)c1ccc(/C(F)=C/C(c2cc(F)c(F)c(F)c2)C(F)(F)F)cc1C(F)(F)F)NCC(F)(F)F (stereo not drawn) [F160, (Z)—N-(2-Oxo-2-((2,2,2-trifluoroethyl)amino)ethyl)-4-(1,4,4,4-tetrafluoro-3-(3,4,5-trifluorophenyl)but-1-en-1-yl)-2-(trifluoromethyl)benzamide]
- pest or weed control at 50 µg/cm2 [1]: 50 to 100%
- pest or weed control at 50 µg/cm2 [2]: 50 to 100%
- pest or weed control at 200 µg/mL [3]: 80 to 100%
- YFM rating [4]: A (80-100)

Structure (SMILES): CCN(CC(F)(F)F)C(=O)CNC(=O)c1ccc(/C(F)=C/C(c2cc(Cl)c(Cl)c(Cl)c2)C(F)(F)F)cc1C(F)(F)F (stereo not drawn) [F167, (Z)—N-(2-(ethyl(2,2,2-trifluoroethyl)amino)-2-oxoethyl)-4-(1,4,4,4-tetrafluoro-3-(3,4,5-trichlorophenyl)but-1-en-1-yl)-2-(trifluoromethyl)benzamide]
- pest or weed control at 50 µg/cm2 [1]: 50 to 100%
- pest or weed control at 50 µg/cm2 [2]: 50 to 100%
- pest or weed control at 200 µg/mL [3]: 80 to 100%
- YFM rating [4]: A (80-100)

Structure (SMILES): O=C(N[C@@H]1CON(CC(F)(F)F)C1=O)c1ccc(/C(F)=C/C(c2cc(Cl)c(Cl)c(Cl)c2)C(F)F)cc1C(F)(F)F (stereo partly drawn) [F177, N—((R)-3-Oxo-2-(2,2,2-trifluoroethyl)isoxazolidin-4-yl)-4-((Z)-1,4,4-trifluoro-3-(3,4,5-trichlorophenyl)but-1-en-1-yl)-2-(trifluoromethyl)benzamide]
- pest or weed control at 50 µg/cm2 [1]: 50 to 100%
- pest or weed control at 50 µg/cm2 [2]: 50 to 100%
- pest or weed control at 200 µg/mL [3]: 80 to 100%
- YFM rating [4]: A (80-100)

Structure (SMILES): O=C(N[C@@H]1CON(CC(F)(F)F)C1=O)c1ccc(/C(F)=C/C(c2ccc(C(F)(F)F)c(Cl)c2)C(F)(F)F)cc1C(F)(F)F (stereo partly drawn) [F180, 4-((Z)-3-(3-Chloro-4-(trifluoromethyl)phenyl)-1,4,4,4-tetrafluorobut-1-en-1-yl)-N—((R)-3-oxo-2-(2,2,2-trifluoroethyl)isoxazolidin-4-yl)-2-(trifluoromethyl)benzamide]
- pest or weed control at 50 µg/cm2 [1]: 50 to 100%
- pest or weed control at 50 µg/cm2 [2]: 50 to 100%
- pest or weed control at 200 µg/mL [3]: 80 to 100%

Structure (SMILES): CN(CC(F)(F)F)C(=O)C1(NC(=O)c2ccc(/C(F)=C/C(c3ccc(Cl)c(F)c3)C(F)(F)F)cc2C(F)(F)F)CC1 (stereo not drawn) [PF22, (Z)-4-(3-(4-Chloro-3-fluorophenyl)-1,4,4,4-tetrafluorobut-1-en-1-yl)-N-(1-(methyl(2,2,2-trifluoroethyl)carbamoyl)cyclopropyl)-2-(trifluoromethyl)benzamide]
- pest or weed control at 50 µg/cm2 [1]: 50 to 100%
- pest or weed control at 50 µg/cm2 [2]: 50 to 100%
- YFM rating [4]: B (More than 0-Less than 80)

Structure (SMILES): C[C@@H](NC(=O)c1ccc(/C(F)=C/C(c2ccc(Br)c(Cl)c2)C(F)(F)F)cc1C(F)(F)F)C(=O)NCC(F)(F)F (stereo partly drawn) [PF25]
- pest or weed control at 50 µg/cm2 [1]: 50 to 100%
- pest or weed control at 50 µg/cm2 [2]: 50 to 100%
- YFM rating [4]: B (More than 0-Less than 80)

Structure (SMILES): C[C@@H](NC(=O)c1ccc(/C(F)=C/C(c2cc(Cl)cc(Br)c2)C(F)(F)F)cc1C(F)(F)F)C(=O)N(C)CC(F)(F)F (stereo partly drawn) [PF31, 4-((Z)-3-(3-Bromo-5-chlorophenyl)-1,4,4,4-tetrafluorobut-1-en-1-yl)-N—((R)-1-(methyl(2,2,2-trifluoroethyl)amino)-1-oxopropan-2-yl)-2-(trifluoromethyl)benzamide]
- pest or weed control at 50 µg/cm2 [1]: 50 to 100%
- pest or weed control at 50 µg/cm2 [2]: 50 to 100%
- YFM rating [4]: B (More than 0-Less than 80)

Structure (SMILES): O=C(NC1(C(=O)NCC(F)(F)F)CC1)c1ccc(/C(F)=C/C(c2cc(Cl)cc(Br)c2)C(F)(F)F)cc1C(F)(F)F (stereo not drawn) [PF32, (Z)-4-(3-(3-Bromo-5-chlorophenyl)-1,4,4,4-tetrafluorobut-1-en-1-yl)-N-(1-((2,2,2-trifluoroethyl)carbamoyl)cyclopropyl)-2-(trifluoromethyl)benzamide]
- pest or weed control at 200 µg/mL [3]: 0 to 80%

Structure (SMILES): CN(CC(F)(F)F)C(=O)C1(NC(=O)c2ccc(/C(F)=C/C(c3cc(Cl)cc(Br)c3)C(F)(F)F)cc2C(F)(F)F)CC1 (stereo not drawn) [PF33, (Z)-4-(3-(3-Bromo-5-chlorophenyl)-1,4,4,4-tetrafluorobut-1-en-1-yl)-N-(1-(methyl(2,2,2-trifluoroethyl)carbamoyl)cyclopropyl)-2-(trifluoromethyl)benzamide]
- pest or weed control at 50 µg/cm2 [1]: 50 to 100%
- pest or weed control at 50 µg/cm2 [2]: 50 to 100%
- YFM rating [4]: B (More than 0-Less than 80)

Structure (SMILES): CN(CC(F)(F)F)C(=O)CNC(=O)c1ccc(/C(F)=C/C(c2ccc(Cl)c(Br)c2)C(F)(F)F)cc1C(F)(F)F (stereo not drawn) [PF35, (Z)-4-(3-(3-Bromo-4-chlorophenyl)-1,4,4,4-tetrafluorobut-1-en-1-yl)-N-(2-(methyl(2,2,2-trifluoroethyl)amino)-2-oxoethyl)-2-(trifluoromethyl)benzamide]
- pest or weed control at 50 µg/cm2 [1]: 50 to 100%
- pest or weed control at 50 µg/cm2 [2]: 50 to 100%
- YFM rating [4]: B (More than 0-Less than 80)

Structure (SMILES): C[C@@H](NC(=O)c1ccc(/C(F)=C/C(c2ccc(Cl)c(Br)c2)C(F)(F)F)cc1C(F)(F)F)C(=O)N(C)CC(F)(F)F (stereo partly drawn) [PF37, 4-((Z)-3-(3-Bromo-4-chlorophenyl)-1,4,4,4-tetrafluorobut-1-en-1-yl)-N—((R)-1-(methyl(2,2,2-trifluoroethyl)amino)-1-oxopropan-2-yl)-2-(trifluoromethyl)benzamide]
- pest or weed control at 50 µg/cm2 [1]: 50 to 100%
- pest or weed control at 50 µg/cm2 [2]: 50 to 100%
- YFM rating [4]: B (More than 0-Less than 80)

Structure (SMILES): CN(CC(F)(F)F)C(=O)C1(NC(=O)c2ccc(/C(F)=C/C(c3ccc(Cl)c(Br)c3)C(F)(F)F)cc2C(F)(F)F)CC1 (stereo not drawn) [PF39, (Z)-4-(3-(3-Bromo-4-chlorophenyl)-1,4,4,4-tetrafluorobut-1-en-1-yl)-N-(1-(methyl(2,2,2-trifluoroethyl)carbamoyl)cyclopropyl)-2-(trifluoromethyl)benzamide]
- pest or weed control at 50 µg/cm2 [1]: 50 to 100%
- pest or weed control at 50 µg/cm2 [2]: 50 to 100%
- YFM rating [4]: B (More than 0-Less than 80)

Structure (SMILES): O=C(CNC(=S)c1ccc(/C(F)=C/C(c2cc(Cl)c(Cl)c(Cl)c2)C(F)(F)F)cc1C(F)(F)F)NCC(F)(F)F (stereo not drawn) [PF82, (Z)-2-(4-(1,4,4,4-tetrafluoro-3-(3,4,5-trichlorophenyl)but-1-en-1-yl)-2-(trifluoromethyl)phenylthioamido)-N-(2,2,2-trifluoroethyl)acetamide]
- pest or weed control at 50 µg/cm2 [1]: 50 to 100%
- pest or weed control at 50 µg/cm2 [2]: 50 to 100%
- YFM rating [4]: A (80-100)

Structure (SMILES): O=C(NCC(=S)NCC(F)(F)F)c1ccc(/C(F)=C/C(c2cc(Cl)c(Cl)c(Cl)c2)C(F)(F)F)cc1C(F)(F)F (stereo not drawn) [PF94, (Z)-4-(1,4,4,4-tetrafluoro-3-(3,4,5-trichlorophenyl)but-1-en-1-yl)-N-(2-thioxo-2-((2,2,2-trifluoroethyl)amino)ethyl)-2-(trifluoromethyl)benzamide]
- pest or weed control at 50 µg/cm2 [1]: 50 to 100%
- pest or weed control at 50 µg/cm2 [2]: 50 to 100%
- YFM rating [4]: A (80-100)
